In ChEMBL document CHEMBL3991601, “The target landscape of clinical kinase drugs” (Science, 2017) one finds Kd data, which are given here for ten compounds.

For experiment [1], the target named is Tyrosine-protein kinase BTK (Homo sapiens, UniProt Q06187).
Experiment [2] has as its target T1, Receptor-type tyrosine-protein kinase FLT3 (Homo sapiens, UniProt P36888).
T1 sequence (P36888 whole entry): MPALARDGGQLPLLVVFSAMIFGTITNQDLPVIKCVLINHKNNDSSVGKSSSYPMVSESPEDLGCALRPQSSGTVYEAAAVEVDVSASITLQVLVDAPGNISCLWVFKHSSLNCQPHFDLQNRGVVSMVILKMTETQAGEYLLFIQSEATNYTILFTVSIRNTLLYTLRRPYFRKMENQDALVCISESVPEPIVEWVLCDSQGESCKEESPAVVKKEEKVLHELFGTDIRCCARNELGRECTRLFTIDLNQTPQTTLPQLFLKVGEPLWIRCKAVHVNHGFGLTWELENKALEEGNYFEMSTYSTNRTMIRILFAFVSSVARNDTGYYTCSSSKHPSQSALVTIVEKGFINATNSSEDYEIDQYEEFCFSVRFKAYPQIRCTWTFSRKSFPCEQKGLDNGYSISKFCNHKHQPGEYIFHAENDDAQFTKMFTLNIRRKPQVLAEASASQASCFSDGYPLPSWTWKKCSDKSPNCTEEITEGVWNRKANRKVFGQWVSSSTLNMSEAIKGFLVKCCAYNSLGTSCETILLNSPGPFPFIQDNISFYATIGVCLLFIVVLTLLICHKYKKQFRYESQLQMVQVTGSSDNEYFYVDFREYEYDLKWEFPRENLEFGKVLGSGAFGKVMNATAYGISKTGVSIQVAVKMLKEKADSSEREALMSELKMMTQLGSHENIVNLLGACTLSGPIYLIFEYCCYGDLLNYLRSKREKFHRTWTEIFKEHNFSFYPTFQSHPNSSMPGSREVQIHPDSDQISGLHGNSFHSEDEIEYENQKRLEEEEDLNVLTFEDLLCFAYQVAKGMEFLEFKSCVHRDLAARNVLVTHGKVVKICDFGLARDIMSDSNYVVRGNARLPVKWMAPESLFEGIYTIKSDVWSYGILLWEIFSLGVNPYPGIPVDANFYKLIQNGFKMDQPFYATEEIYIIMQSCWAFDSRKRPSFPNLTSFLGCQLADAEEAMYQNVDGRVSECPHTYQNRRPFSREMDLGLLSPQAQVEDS

The target in experiment [3] is Mitogen-activated protein kinase kinase kinase 1 (Homo sapiens, UniProt Q13233).
In experiment [4] the target is Mitogen-activated protein kinase kinase kinase 4 (Homo sapiens, UniProt Q9Y6R4).
The target in experiment [5] is Obg-like ATPase 1 (Homo sapiens, UniProt Q9NTK5).
In experiment [6] the target is Rho-associated protein kinase 2 (Homo sapiens, UniProt O75116).
Experiment [7] addresses Serine/threonine-protein kinase SIK2 (Homo sapiens, UniProt Q9H0K1).
Experiment [8] deals with T2, Serine/threonine-protein kinase TAO3 (Homo sapiens, UniProt Q9H2K8).
T2 sequence (Q9H2K8 whole entry): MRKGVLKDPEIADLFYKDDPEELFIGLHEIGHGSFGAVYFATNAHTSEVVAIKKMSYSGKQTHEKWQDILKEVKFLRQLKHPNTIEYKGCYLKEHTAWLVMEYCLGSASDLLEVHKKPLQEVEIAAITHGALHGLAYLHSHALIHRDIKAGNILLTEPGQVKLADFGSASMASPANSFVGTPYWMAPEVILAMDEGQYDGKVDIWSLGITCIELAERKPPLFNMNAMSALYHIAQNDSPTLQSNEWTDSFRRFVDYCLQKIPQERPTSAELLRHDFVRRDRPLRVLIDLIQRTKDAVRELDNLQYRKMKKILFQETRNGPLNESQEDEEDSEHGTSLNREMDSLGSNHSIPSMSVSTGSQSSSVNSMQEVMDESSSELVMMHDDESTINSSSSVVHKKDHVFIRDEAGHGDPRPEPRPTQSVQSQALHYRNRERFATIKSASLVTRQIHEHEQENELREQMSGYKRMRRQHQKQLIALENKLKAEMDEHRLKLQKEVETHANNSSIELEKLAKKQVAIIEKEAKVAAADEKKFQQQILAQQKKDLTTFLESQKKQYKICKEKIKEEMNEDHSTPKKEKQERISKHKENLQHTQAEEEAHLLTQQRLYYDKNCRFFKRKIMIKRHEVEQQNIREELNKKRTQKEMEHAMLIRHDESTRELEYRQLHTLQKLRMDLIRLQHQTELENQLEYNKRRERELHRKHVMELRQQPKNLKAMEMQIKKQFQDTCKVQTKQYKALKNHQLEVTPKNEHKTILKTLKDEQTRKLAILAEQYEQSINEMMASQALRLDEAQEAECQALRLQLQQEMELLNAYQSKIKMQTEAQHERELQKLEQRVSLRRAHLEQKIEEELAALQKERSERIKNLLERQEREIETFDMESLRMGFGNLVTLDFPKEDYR

For experiment [9], the target named is T3, Non-receptor tyrosine-protein kinase TNK1 (Homo sapiens, UniProt Q13470).
T3 sequence (Q13470 whole entry): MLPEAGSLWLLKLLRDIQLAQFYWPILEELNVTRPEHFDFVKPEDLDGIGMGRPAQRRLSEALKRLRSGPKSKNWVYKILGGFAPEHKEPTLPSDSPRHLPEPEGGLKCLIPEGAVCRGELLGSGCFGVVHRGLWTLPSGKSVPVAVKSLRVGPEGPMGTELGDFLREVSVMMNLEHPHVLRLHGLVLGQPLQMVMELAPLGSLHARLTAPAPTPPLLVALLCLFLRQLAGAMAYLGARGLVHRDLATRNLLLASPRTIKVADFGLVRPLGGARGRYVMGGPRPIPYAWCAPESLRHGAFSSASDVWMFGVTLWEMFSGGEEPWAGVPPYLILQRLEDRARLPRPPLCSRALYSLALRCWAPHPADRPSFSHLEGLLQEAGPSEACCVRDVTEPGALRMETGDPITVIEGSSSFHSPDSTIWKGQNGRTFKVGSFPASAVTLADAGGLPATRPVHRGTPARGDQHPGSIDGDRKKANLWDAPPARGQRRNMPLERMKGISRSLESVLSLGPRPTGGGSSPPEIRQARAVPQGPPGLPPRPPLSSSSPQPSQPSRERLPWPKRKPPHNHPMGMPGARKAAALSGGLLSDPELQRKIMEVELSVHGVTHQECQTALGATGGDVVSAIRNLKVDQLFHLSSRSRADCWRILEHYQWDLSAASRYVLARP

The target in experiment [10] is DNA topoisomerase 2-alpha (Homo sapiens, UniProt P11388).
Experiment [11] deals with TRAF2 and NCK-interacting protein kinase (Homo sapiens, UniProt Q9UKE5).

Each structure is given as a SMILES string. Calls of active or inactive are those of the source. For most assays here, no stated cut-off is given here; in the data, actives have a measured Kd and inactives only a lower limit. A value given as a limit tells only on which side of the number the result lay.

Chain of Serine/threonine-protein kinase SIK2 (Q9H0K1 whole entry): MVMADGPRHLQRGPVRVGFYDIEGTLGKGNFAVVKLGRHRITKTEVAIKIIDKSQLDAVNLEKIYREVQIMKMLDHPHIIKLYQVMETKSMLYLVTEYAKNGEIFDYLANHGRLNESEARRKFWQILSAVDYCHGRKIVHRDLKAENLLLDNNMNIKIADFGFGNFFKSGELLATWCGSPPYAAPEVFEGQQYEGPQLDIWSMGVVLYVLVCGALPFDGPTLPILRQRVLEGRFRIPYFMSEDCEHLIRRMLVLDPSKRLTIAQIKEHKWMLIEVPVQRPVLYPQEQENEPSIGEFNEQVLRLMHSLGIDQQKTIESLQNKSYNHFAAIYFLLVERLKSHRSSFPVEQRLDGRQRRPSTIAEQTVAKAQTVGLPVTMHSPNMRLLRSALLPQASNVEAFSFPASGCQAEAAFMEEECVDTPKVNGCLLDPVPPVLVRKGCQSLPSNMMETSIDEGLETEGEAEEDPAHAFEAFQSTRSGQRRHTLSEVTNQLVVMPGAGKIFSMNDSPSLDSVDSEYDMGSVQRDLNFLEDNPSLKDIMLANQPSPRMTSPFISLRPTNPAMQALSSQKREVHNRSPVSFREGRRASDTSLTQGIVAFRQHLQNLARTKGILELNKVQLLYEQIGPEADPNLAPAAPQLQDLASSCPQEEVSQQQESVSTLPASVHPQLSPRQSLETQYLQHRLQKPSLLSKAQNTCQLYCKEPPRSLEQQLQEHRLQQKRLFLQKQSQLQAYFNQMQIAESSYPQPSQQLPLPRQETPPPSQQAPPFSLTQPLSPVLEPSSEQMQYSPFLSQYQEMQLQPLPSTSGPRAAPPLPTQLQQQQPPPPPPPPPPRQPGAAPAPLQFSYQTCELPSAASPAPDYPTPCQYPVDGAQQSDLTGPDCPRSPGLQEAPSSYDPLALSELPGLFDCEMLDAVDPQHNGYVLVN
Chain of TRAF2 and NCK-interacting protein kinase (Q9UKE5 whole entry): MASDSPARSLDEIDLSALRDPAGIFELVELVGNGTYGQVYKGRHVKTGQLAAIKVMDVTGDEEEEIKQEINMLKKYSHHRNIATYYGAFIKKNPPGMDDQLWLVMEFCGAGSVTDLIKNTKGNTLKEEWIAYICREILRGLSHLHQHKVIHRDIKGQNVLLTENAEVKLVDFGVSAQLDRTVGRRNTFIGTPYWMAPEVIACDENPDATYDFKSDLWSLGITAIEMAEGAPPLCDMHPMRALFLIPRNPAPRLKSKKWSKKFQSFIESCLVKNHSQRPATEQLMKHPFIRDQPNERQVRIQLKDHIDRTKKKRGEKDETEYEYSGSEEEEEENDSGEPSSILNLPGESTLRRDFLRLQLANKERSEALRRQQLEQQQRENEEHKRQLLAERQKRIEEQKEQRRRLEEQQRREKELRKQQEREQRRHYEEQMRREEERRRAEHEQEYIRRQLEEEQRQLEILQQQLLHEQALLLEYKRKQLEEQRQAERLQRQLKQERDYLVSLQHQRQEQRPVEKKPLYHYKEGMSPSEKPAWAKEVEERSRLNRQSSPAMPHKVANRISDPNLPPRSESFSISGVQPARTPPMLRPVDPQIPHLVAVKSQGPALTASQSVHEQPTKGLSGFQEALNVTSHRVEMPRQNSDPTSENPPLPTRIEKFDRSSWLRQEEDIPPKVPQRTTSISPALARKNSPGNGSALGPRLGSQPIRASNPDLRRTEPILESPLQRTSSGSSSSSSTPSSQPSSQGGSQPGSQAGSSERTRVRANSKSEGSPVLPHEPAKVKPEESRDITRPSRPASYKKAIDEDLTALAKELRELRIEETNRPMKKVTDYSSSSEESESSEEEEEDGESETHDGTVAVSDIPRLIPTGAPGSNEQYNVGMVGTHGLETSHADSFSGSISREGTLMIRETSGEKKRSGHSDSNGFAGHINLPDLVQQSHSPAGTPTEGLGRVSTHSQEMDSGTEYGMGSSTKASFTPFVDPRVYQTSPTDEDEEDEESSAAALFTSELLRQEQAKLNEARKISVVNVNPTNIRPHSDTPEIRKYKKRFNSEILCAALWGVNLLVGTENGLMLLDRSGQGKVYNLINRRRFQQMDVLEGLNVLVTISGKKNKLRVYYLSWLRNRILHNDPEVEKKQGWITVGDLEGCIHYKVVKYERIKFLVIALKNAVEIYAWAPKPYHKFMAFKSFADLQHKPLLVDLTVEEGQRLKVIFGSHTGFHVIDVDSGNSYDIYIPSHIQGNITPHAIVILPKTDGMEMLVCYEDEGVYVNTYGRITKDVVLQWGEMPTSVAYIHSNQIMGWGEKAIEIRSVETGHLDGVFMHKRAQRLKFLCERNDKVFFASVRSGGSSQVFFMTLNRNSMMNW
Chain of Mitogen-activated protein kinase kinase kinase 1 (Q13233 whole entry): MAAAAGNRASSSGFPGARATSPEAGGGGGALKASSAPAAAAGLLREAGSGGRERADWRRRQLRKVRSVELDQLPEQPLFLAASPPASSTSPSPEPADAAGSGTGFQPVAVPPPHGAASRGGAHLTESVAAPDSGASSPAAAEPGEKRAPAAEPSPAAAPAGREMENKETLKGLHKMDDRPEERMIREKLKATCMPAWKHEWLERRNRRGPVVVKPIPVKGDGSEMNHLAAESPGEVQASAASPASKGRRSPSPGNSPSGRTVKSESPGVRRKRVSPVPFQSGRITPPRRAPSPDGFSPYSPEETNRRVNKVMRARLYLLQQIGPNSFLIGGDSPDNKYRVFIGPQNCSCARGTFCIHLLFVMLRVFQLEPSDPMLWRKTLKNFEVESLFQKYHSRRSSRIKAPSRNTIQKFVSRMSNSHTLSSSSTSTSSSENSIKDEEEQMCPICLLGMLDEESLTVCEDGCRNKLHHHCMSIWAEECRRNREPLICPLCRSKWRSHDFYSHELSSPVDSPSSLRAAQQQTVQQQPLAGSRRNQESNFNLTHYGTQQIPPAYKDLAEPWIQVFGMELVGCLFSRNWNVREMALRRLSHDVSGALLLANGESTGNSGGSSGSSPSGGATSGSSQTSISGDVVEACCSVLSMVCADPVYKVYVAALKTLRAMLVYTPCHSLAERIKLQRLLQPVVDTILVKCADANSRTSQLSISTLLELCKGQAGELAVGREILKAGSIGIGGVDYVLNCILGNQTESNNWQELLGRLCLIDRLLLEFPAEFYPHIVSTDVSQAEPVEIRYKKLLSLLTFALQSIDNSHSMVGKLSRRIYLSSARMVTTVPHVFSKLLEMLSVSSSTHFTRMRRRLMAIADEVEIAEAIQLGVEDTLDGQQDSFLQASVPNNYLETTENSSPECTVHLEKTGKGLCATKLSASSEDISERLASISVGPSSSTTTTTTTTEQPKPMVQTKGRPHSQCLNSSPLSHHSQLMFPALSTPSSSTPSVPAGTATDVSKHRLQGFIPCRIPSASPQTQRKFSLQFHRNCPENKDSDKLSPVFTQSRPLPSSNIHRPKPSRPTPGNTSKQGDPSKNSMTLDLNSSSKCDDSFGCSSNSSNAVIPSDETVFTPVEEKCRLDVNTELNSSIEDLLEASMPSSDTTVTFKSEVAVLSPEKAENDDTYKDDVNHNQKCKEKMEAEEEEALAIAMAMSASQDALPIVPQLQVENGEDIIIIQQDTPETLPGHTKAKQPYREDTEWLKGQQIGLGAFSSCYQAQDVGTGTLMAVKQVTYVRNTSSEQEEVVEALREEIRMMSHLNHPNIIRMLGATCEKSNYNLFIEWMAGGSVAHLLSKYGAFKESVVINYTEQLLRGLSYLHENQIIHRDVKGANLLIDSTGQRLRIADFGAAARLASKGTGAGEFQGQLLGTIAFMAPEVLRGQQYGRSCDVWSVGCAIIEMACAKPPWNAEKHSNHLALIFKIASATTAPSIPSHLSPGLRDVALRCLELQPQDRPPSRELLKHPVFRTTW
Chain of Tyrosine-protein kinase BTK (Q06187 whole entry): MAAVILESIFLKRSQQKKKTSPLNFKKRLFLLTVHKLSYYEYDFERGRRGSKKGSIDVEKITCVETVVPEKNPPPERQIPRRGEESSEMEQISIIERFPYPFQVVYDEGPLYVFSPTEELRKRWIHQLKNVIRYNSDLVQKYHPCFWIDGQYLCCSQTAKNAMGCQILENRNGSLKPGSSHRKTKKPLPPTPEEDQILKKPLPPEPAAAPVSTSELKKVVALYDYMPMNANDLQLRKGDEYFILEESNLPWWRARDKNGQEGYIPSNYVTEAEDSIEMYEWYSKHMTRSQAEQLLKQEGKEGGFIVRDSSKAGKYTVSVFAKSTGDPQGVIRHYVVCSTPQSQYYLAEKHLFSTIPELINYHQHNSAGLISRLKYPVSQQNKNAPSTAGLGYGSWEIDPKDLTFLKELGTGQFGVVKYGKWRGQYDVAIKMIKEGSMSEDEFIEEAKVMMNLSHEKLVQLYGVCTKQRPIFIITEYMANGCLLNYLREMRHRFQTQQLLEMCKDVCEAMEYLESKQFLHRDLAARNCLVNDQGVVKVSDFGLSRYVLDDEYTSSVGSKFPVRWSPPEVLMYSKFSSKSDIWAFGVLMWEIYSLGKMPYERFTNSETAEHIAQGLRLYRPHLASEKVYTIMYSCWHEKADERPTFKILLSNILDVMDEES
Chain of Obg-like ATPase 1 (Q9NTK5 whole entry, looked up): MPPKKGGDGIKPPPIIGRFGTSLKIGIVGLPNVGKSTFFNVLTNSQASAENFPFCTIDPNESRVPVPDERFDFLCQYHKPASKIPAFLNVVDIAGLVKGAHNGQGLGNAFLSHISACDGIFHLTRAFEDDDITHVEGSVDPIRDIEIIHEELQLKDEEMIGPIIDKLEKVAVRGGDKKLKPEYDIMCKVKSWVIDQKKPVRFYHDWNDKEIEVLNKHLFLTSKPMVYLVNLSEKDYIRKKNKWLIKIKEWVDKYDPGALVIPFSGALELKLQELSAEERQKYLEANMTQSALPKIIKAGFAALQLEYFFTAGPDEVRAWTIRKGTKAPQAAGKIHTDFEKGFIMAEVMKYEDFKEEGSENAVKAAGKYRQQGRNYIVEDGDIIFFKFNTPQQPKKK

Take `CC(=O)c1cnc2ccc(-c3cc(Cl)c(O)c(Cl)c3)nc2c1N[C@H]1CC[C@H](CN(C)C)CC1`: the Kd in experiment [1] is 0.361 µM (active); in experiment [2] it was > 30 µM (inactive); in [3], > 30 µM (inactive); in [4], > 30 µM (inactive); in experiment [5] it was > 30 µM (inactive); in experiment [6] it was > 30 µM (inactive). The Kd is 0.24 µM (active) in experiment [7], 0.021 µM (active) in experiment [8], 1.78 µM (active) in experiment [9] and > 30 µM (inactive) in experiment [10].

As for `COCc1c(-c2ccc(NC(=O)Nc3cc(C(F)(F)F)ccc3F)c(F)c2)c2c(N)ncnn2c1CN1CCOCC1`, the Kd in experiment [1] was > 30 µM (inactive); in experiment [2], 0.465 µM (active); in experiment [3], > 30 µM (inactive); in experiment [4], > 30 µM (inactive); in experiment [5], > 30 µM (inactive); in experiment [6], > 30 µM (inactive). The Kd in experiment [7] was > 30 µM (inactive); in [8], > 30 µM (inactive); in experiment [11], > 30 µM (inactive); in [9], 1.26 µM (active); in [10], > 30 µM (inactive).

On to `COc1c(OCCCN2CCOCC2)ccc2c1N=C(NC(=O)c1cnc(N)nc1)N1CCN=C21` [COPANLISIB], for which the Kd in experiment [1], in experiment [2], in [3], in experiment [4], in experiment [5] and in [6] was > 30 µM (inactive) in each case. For the same compound, the Kd in experiment [7], in experiment [8], in [11] and in [9] was > 30 µM (inactive) in each case.

On to `O=C(Nc1nc2cccc(-c3ccc(CN4CCS(=O)(=O)CC4)cc3)n2n1)C1CC1` [FILGOTINIB], for which the Kd in [1], in experiment [2], in [3], in experiment [4], in experiment [5] and in [6] was > 30 µM (inactive) each time. The Kd in experiment [7], in [8], in experiment [11] and in experiment [9] was > 30 µM (inactive) in each case.

As to `Cn1cc(-c2cnc3ccc4ccc(CS(=O)(=O)NCc5ccccn5)cc4c(=O)c3c2)cn1` [MK-8033], the Kd in experiment [1], in [2], in experiment [3], in experiment [4], in experiment [5] and in experiment [6] was > 30 µM (inactive) each time. Also, the Kd in experiment [7], in experiment [8], in experiment [11] and in experiment [9] was > 30 µM (inactive) in each case.

For `CCOc1cc2ncc(C#N)c(Nc3ccc(F)c(Cl)c3)c2cc1NC(=O)/C=C/CN(C)C` [PELITINIB], the Kd in [1] is 0.514 µM (active); in [2] it was > 30 µM (inactive); in [3], 0.097 µM (active); in [5] it was > 30 µM (inactive); in [6], > 30 µM (inactive); in experiment [8], > 30 µM (inactive). Also, the Kd in experiment [9] and in [10] was > 30 µM (inactive) each time.

Consider `CCCCCCCCCCCCCCCCCCOP(=O)([O-])OC1CC[N+](C)(C)CC1` [PERIFOSINE], for which the Kd in experiment [1], in experiment [2], in experiment [3], in experiment [4], in experiment [5] and in experiment [6] was > 30 µM (inactive) each time. The Kd in experiment [7], in experiment [8], in experiment [11] and in [9] was > 30 µM (inactive) each time.

As for `Cn1cc(-c2cnn3c(N)c(Br)c([C@@H]4CCCNC4)nc23)cn1` [SCH-900776], the Kd in experiment [1] was > 30 µM (inactive); in experiment [2] it was > 30 µM (inactive); in experiment [3], 1.25 µM; in [4] it was > 30 µM (inactive); in experiment [5], > 30 µM (inactive); in [6], > 30 µM (inactive). The Kd in experiment [7] is 0.27 µM (active); in experiment [8], > 30 µM (inactive); in [11] it was > 30 µM (inactive); in [9] it was > 30 µM (inactive).

For the compound `CCS(=O)(=O)c1cccc(-c2cc(C(=O)NC3CCN(C)CC3)c(C)c3[nH]c4ncc(C)cc4c23)c1` [TAK-901], the dissociation constant (Kd) in [1] was 0.328 µM (active); in experiment [2] it was 0.554 µM; in experiment [3], > 30 µM (inactive); in experiment [4], > 30 µM (inactive); in experiment [5], > 30 µM (inactive); in experiment [6], > 30 µM (inactive). Moreover, the dissociation constant (Kd) is 0.115 µM (active) in experiment [7], > 30 µM (inactive) in [8], > 30 µM (inactive) in experiment [11] and 0.558 µM in experiment [9].

In the case of `C[C@@H](N)c1ccc(C(=O)Nc2ccnc3[nH]ccc23)cc1` [Y-39983], the Kd in experiment [1], in experiment [2], in experiment [3], in [4], in experiment [5] and in [7] was > 30 µM (inactive) each time. Further, the Kd in [8], in experiment [11], in experiment [9] and in experiment [10] was > 30 µM (inactive) each time.
